According to patent US20060004028A1, “Novel PARP inhibitor” (MOCHIDA PHARMACEUTICAL CO., LTD., priority 2002, published 2006):

How the values were obtained:
[1] = target: T1, PARP (Homo sapiens, UniProt P09874); assay: Measurement of PARP inhibitory activity (PARP Inhibition Assay kit, ADP-ribosylated histone); assay type: biochemical; settings: HSA PARP Enzyme, histone-coated plate, absorbance at 450 nm
T1 construct: purchased Travigen (Trevigen) 4669-96-K
Method: PARP activity is determined by measuring the amount of ADP-ribosylated histone protein applied onto an assay plate according to the manual of a measurement kit “PARP Inhibition Assay” (produced by Travigen, catalog number: 4669-96-K). Specifically, 25 μL/well of “2×PARP cocktail” (containing 800 μM of NAD, 50 μM of biotinylated NAD, and denatured DNA) was added to each well of assay plates (96-well multiplate) previously coated with histone protein. Further added was 12.5 μL/well of test compound diluted with “PARP Buffer” (50 mM Tris-hydrochloric acid buffer (pH 8.0) containing 25 mM of MgCl2) and 12.5 μL/well (final concentration: 0.3 unit/50 μL/well) of “HSA PARP Enzyme” diluted with “PARP Buffer” in that order. The mixture was allowed to react at room temperature for 30 minutes. Enzyme reaction of PARP was suspended by discarding the reaction solution and rinsing with a phosphate buffer. Then, 50 μL/well of “Strep-HRP” (streptavidin-labeled horseradish peroxidase) was added and allowed to react at 37° C. for 20 to 30 minutes to bind to biotin-labeled ADP-ribosylated histone. After the reaction solution was discarded, resultings were rinsed with a phosphate buffer, and 50 μL/well of calorimetric substrate TACS-Sapphire was added to the mixture to react at room temperature for 5 to 10 minutes in the dark.
The reaction was terminated by adding 50 μL/well of 0.2 N hydrochloric acid solution, and the absorbance at 450 nm was measured with a microplate reader.

[2] = test system: U937 cells; assay: Inhibitory effect against active oxygen-induced cell injury with U937 cells; assay type: cell-based; settings: propidium iodide fluorescence
Method: U937 cells were suspended in RPMI 1640 without serum, and were seeded at a concentration of 1×10^4 cells/50 μL/well in a solid assay plate (produced by Corning, black, tissue culture treated, Type: 3916). After adding 1 μL/well of test compound solution in DMSO, 50 μL/well of 20 mM hydrogen peroxide solution was added, followed by incubation at 37° C. for 3 hours in an atmosphere of 5% CO2. Then, 2 μL/well of 1.5 mM propidium iodide solution was added and incubation was further carried out at 37° C. for 1 hour. The fluorescence was measured with a fluorescence plate reader ARVO (excitation wavelength: 530 nm, fluorescence wavelength: 620 nm) to investigate hydrogen peroxide solution-induced necrosis inhibition.

[3] = Homo sapiens, U-937, hydrogen peroxide-induced necrosis

T1 sequence (P09874 whole entry): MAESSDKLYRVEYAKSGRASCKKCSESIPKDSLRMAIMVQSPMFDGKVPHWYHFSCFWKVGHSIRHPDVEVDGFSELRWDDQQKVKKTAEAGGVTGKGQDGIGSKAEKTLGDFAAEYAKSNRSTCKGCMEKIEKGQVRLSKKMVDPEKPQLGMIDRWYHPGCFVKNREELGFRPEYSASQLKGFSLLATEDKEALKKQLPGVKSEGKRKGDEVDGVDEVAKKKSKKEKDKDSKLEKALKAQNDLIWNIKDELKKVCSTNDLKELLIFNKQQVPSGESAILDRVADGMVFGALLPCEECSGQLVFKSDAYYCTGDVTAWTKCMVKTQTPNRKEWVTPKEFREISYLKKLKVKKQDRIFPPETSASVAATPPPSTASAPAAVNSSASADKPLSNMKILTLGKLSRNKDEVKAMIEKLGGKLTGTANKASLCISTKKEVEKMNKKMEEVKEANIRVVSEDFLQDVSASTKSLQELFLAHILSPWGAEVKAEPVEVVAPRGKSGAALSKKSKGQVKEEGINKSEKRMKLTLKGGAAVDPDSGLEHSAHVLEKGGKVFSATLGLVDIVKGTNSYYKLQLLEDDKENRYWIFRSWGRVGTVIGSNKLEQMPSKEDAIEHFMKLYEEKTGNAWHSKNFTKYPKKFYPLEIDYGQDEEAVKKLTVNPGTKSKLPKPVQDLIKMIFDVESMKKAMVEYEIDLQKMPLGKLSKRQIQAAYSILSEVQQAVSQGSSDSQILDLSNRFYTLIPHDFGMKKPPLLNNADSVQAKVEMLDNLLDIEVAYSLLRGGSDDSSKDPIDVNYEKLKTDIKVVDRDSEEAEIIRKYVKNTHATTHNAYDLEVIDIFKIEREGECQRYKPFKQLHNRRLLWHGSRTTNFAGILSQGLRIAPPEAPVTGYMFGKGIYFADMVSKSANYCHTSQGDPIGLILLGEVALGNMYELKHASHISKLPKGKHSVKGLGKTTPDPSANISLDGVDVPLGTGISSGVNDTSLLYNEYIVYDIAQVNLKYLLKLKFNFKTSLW

COc1ccc([C@H]2NC(=O)c3cccc4c3N2CC[C@@H]4N)cc1F (racemic) [Example 99, Mixture of (3S,7S)-7-amino-3-(3-fluoro-4-methoxyphenyl)-6,7-dihydro-3H,5H-pyrido[3,2,1-ij]quinazoline-1(2H)-one and (3R,7R)-7-amino-3-(3-fluoro-4-methoxyphenyl)-6,7-dihydro-3H,5H-pyrido[3,2,1-ij]quinazoline-1(2H)-one]
melting point: 128.5 to 137.4 °C
IC50 [1]: 42 nM

COc1ccc(C2NC(=O)c3cccc4c3N2CCC4N)cc1 (stereo not shown) [Example 4, 7-amino-3-(4-methoxyphenyl)-6,7-dihydro-3H,5H-pyrido[3,2,1-ij]quinazolinone-1(2H)-one]
IC50 [2, 3]: 610 nM
melting point: 139.7 to 145.9 °C
IC50 [1]: 58 nM

N[C@H]1CCN2c3c(cccc31)C(=O)N[C@@H]2c1cccnc1 (racemic) [Example 100, Mixture of (3S,7S)-7-amino-3-(3-pyridyl)-6,7-dihydro-3H,5H-pyrido[3,2,1-ij]quinazoline-1(2H)-one and (3R,7R)-7-amino-3-(3-pyridyl)-6,7-dihydro-3H,5H-pyrido[3,2,1-ij]quinazoline-1(2H)-one]
melting point: 127 to 131.2 °C
IC50 [1]: 170 nM

Mixture of (3S,7S)-7-amino-3-(4-bromophenyl)-6,7-dihydro-3H,5H-pyrido[3,2,1-ij]quinazoline-1(2H)-one and (3R,7R)-7-amino-3-(4-bromophenyl)-6,7-dihydro-3H,5H-pyrido[3,2,1-ij]quinazoline-1(2H)-one [Example 123]
IC50 ([2]; hydrogen peroxide-induced necrosis): 300 nM
IC50 [1]: 110 nM

COc1ccc(C2NC(=O)c3cccc4c3N2CCC4=NO)cc1F (stereo not shown) [Example 66, 3-(3-fluoro-4-methoxyphenyl)-7-hydroxyimino-6,7-dihydro-3H,5H-pyrido[3,2,1-ij]quinazoline-1(2H)-one]
IC50 [2, 3]: 1700 nM
melting point: 260.3 to 261.6 °C

N[C@H]1CCN2c3c(cccc31)C(=O)N[C@@H]2c1ccc(OCCO)cc1 (racemic) [Example 93, Mixture of (3S,7S)-7-amino-3-(4-hydroxyethoxyphenyl)-6,7-dihydro-3H,5H-pyrido[3,2,1-ij]quinazoline-1(2H)-one and (3R,7R)-7-amino-3-(4-hydroxyethoxyphenyl)-6,7-dihydro-3H,5H-pyrido[3,2,1-ij]quinazoline-1(2H)-one]
melting point: 96.8 to 97.6 °C
IC50 [1]: 6 nM

Mixture of (3S,7S)-7-amino-3-(3,4-difluorophenyl)-6,7-dihydro-3H,5H-pyrido[3,2,1-ij]quinazoline-1(2H)-one and (3R,7R)-7-amino-3-(3,4-difluorophenyl)-6,7-dihydro-3H,5H-pyrido[3,2,1-ij]quinazoline-1(2H)-one [Example 122]
IC50 [1]: 120 nM

O=C1NC(c2ccc(OCCO)cc2)N2CCC(=NO)c3cccc1c32 (stereo not shown) [Example 60, 7-hydroxyimino-3-(4-hydroxyethoxyphenyl)-6,7-dihydro-3H,5H-pyrido[3,2,1-ij]quinazoline-1(2H)-one]
melting point: 183.9 to 186.3 °C

Cc1ccc(C2NC(=O)c3cccc4c3N2CCC4=O)cc1 (stereo not shown) [Example 18, 3-(4-methylphenyl)-6,7-dihydro-3H,5H-pyrido[3,2,1-ij]quinazoline-1,7(2H)-dione]
melting point: 172.1 to 175.8 °C

CC(C)Oc1ccc(C2NC(=O)c3cccc4c3N2CCC4=O)cc1 (stereo not shown) [Example 37, 3-(4-isopropoxyphenyl)-6,7-dihydro-3H,5H-pyrido[3,2,1-ij]quinazoline-1,7(2H)-dione]
melting point: 175.8 to 177.1 °C

CON=C1CCN2c3c(cccc31)C(=O)NC2Cc1ccc(OC)cc1 (stereo not shown) [Example 69, 7-methoxyimino-3-(4-methoxyphenyl)methyl-6,7-dihydro-3H,5H-pyrido[3,2,1-ij]quinazoline-1(2H)-one]
melting point: 190 to 195.9 °C

CON=C1CCN2c3c(cc(F)cc31)C(=O)NC2c1ccc(OC)cc1 (stereo not shown) [Example 51, 9-fluoro-7-methoxyimino-3-(4-methoxyphenyl)-6,7-dihydro-3H,5H-pyrido[3,2,1-ij]quinazoline-1(2H)-one]
melting point: 200.1 to 202.9 °C

O=C1CCN2c3c1cccc3C(=O)NC2c1ccc([N+](=O)[O-])cc1 (stereo not shown) [Example 17, 3-(4-nitrophenyl)-6,7-dihydro-3H,5H-pyrido[3,2,1-ij]quinazoline-1,7(2H)-dione]
IC50 [2, 3]: 1200 nM
melting point: 198.8 to 209.3 °C
IC50 [1]: 240 nM

CON=C1CCN2c3c(cccc31)C(=O)NC2c1cccnc1 (stereo not shown) [Example 67, 7-methoxyimino-3-(3-pyridyl)-6,7-dihydro-3H,5H-pyrido[3,2,1-ij]quinazoline-1(2H)-one]
melting point: 178.6 to 185.9 °C

O=C1NC(c2ccc([N+](=O)[O-])cc2)N2CCC(=NO)c3cccc1c32 (stereo not shown) [Example 73, 7-hydroxyimino-3-(4-nitrophenyl)-6,7-dihydro-3H,5H-pyrido[3,2,1-ij]quinazoline-1(2H)-one]
melting point: 220 to 224.7 °C

Cc1ccc(C2NC(=O)c3cccc4c3N2CCC4=NO)cc1 (stereo not shown) [Example 77, 7-hydroxyimino-3-(4-methylphenyl)-6,7-dihydro-3H,5H-pyrido[3,2,1-ij]quinazoline-1(2H)-one]
melting point: 215.4 to 219 °C

COc1ccc(C2NC(=O)c3cccc4c3N2CCC4=O)cc1Br (stereo not shown) [Example 27, 3-(3-bromo-4-methoxyphenyl)-6,7-dihydro-3H,5H-pyrido[3,2,1-ij]quinazoline-1,7(2H)-dione]
melting point: 212.8 to 215.7 °C

COc1cc(C2NC(=O)c3cccc4c3N2CCC4=NO)cc(Br)c1OC (stereo not shown) [Example 56, 3-(3-bromo-4,5-dimethoxyphenyl)-7-hydroxyimino-6,7-dihydro-3H,5H-pyrido[3,2,1-ij]quinazoline-1(2H)-one]
melting point: 133.9 to 146.8 °C

CN(C)c1ccc([C@@H]2NC(=O)c3cccc4c3N2CC[C@@H]4N)cc1 (racemic) [Example 129, Mixture of (3R,7S)-7-amino-3-(4-N,N-dimethylaminophenyl)-6,7-dihydro-3H,5H-pyrido[3,2,1-ij]quinazoline-1(2H)-one and (3S,7R)-7-amino-3-(4-N,N-dimethylaminophenyl)-6,7-dihydro-3H,5H-pyrido[3,2,1-ij]quinazoline-1(2H)-one]
melting point: 237.8 to 239.7 °C
IC50 [1]: 49 nM

N#Cc1ccc(C2NC(=O)c3cccc4c3N2CCC4=O)cc1 (stereo not shown) [Example 16, 3-(4-cyanophenyl)-6,7-dihydro-3H,5H-pyrido[3,2,1-ij]quinazoline-1,7(2H)-dione]
melting point: 134 to 146.9 °C

O=C1NC(c2ccc(F)cc2)N2CCC(=NO)c3cccc1c32 (stereo not shown) [Example 76, 3-(4-fluorophenyl)-7-hydroxyimino-6,7-dihydro-3H,5H-pyrido[3,2,1-ij]quinazoline-1(2H)-one]
melting point: 247.1 to 252.3 °C
